For data set [1], the system named is L. donovani promastigotes. The data set is described as follows: Anti-leishmanial screening at 100 μM, parasite viability by microscopy. In kind it is cell-based, Leishmania donovani. The following applies: 100 μM, 72 h, phase contrast microscope. The method, boiled down:
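Promastigotes (MHOM/IN/83/AG83) at 2 × 10^6 cells/mL in M199 with 10% FBS exposed to compound at 100 μM for 72 h at 22°C. Viability assessed microscopically; 0.2% DMSO solvent control, amphotericin B reference.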

The test system of data set [2] is murine macrophage cell line RAW264.7. The data set is described as follows: Ex vivo cytotoxicity assay (MTT). In kind it is cell-based. The following applies: increasing concentrations, 48 h, 37°C (Figure 6). As to the method: Murine macrophage cell line, RAW264.7 was grown at 37°C in medium RPMI-1640 (pH 7.4, Sigma-Aldrich, St. Louis, MO, USA) supplemented with 10% heat-inactivated FBS for 48 to 72 h in a humidified atmosphere of 5% CO2 and sub-cultured in fresh RPMI-1640 medium at an average density 2 × 10^5 cells/ml (Islamuddin et al., [2014b]).
To evaluate the adverse toxicity of test compounds (9, 12, 14, and 18) on mammalian cells, the murine macrophage cell line (RAW264.7) cultured in RPMI 1640 medium were exposed to increasing concentrations of test compounds (5–50 μM) at 37°C, 5% CO2 for 48 h. AmB as the reference drug, and macrophages without any treatment were taken as control. The percentage of cell viability was evaluated by MTT (3-{4, 5-dimethylthiazol-2-yl}-2, 5-diphenyltetrazoliumbromide) assay (Das et al., [2008]).

In data set [3] the test system is L. donovani promastigotes. The data set is described as follows: Promastigote cellular morphology by phase-contrast microscopy. The format is cell-based, Leishmania donovani. The following applies: 1 μM, 72 h. The method, then: Changes in the cellular morphology of Leishmania parasites as a result of compounds 9, 12, 14, and 18 treatment was observed microscopically. Briefly, the promastigotes (2 × 10^6 cells/mL) were incubated in the absence or presence of compounds and AmB for 72 h at a concentration of 1 μM and observed under 40 × objective of a phase-contrast microscope. […] Data were recorded by using NIS-Elements imaging software (Paris et al., [2004]).

For the next data set, the system named is Aspergillus species. Description: Broth microdilution, pooled statement for Aspergillus species. The format is cell-based. The following applies: range over A. fumigatus and A. niger. The text has this: (§1) One reference each of the following species was used for their in vitro susceptibility to β-nitrostyrene in this study: Staphylococcus aureus ATCC 29213, Staphylococcus epidermidis ATCC 14990, Escherichia coli ATCC 25922, Pseudomonas aeruginosa ATCC 27853, Candida albicans ATCC 90028, Candida glabrata ATCC 90030, Aspergillus fumigatus ATCC 16424 and Aspergillus niger ATCC 16404. These strains were procured from the American Type Culture Collection (ATCC, Manassas, VA, USA).
(§2) The antibacterial and antifungal activities of the β-nitrostyrenes were performed by broth microdilution methods as per the guidelines of Clinical and Laboratory Standard Institute (Wayne, [1998], [2008a],[b],[c]) by using Mueller-Hinton broth (MHB; Becton-Dickinson, Cockeysville, MD, USA) supplemented with calcium (25 mg/L) and magnesium (12.5 mg/L) for bacterial strains while as RPMI 1640 medium with L-glutamine and without sodium bicarbonate, buffered to pH 7.0 with 0.165 M 3-(N-morpholino) propanesulfonic acid (MOPS; both from Sigma) was used for fungal strains. […] The plates were read visually and the minimum inhibitory concentration (MIC) was defined as the lowest concentration of test sample that prevented visible growth with respect to the growth control.

For a further data set, the system named is Candida species. The data set is described as follows: Broth microdilution, pooled statement for Candida species. The format is cell-based. The following applies: range over C. albicans and C. glabrata.
Description: as §1, §2
(Broth dilution looks for growth in wells or tubes with falling amounts of substance.)

Data set [4] relates to gram-positive bacteria (S. aureus and S. epidermidis). The data set is described as follows: Broth microdilution, pooled statement for gram-positive bacteria. The following applies: Staphylococcus aureus; range over both strains. In kind it is cell-based.
Description: as §1, §2

In brackets after ≈: the same amount, converted by molar mass.

By melting point is commonly meant the temperature of the solid-liquid transition. The term MIC denotes the smallest concentration in the dilution series that meets the test's criterion for growth inhibition.

`CC/C(=C\c1ccc([N+](=O)[O-])cc1)[N+](=O)[O-]` [Compound 9, 1-nitro-4-((E)-2-nitrobut-1-enyl) benzene]: the melting point was in the range of 104 to 106 °C. In addition, in data set [1], the “Parasite viability after treatment” value is recorded as “All the parasites were found to be dead”. Besides, the “Adverse toxicity on macrophage cell line RAW264.7” value (“Adverse toxicity” below) in data set [2] is given as “Absence of adverse toxicity”. Moreover, the “Cellular morphological alterations of promastigotes” value (“Cellular morphological alterations” below) in data set [3] is listed as “altered to an ovoid shape with cell shrinkage, loss of flagella, cytoplasmic condensation”.
`CC/C(=C\c1cccc([N+](=O)[O-])c1)[N+](=O)[O-]` [Compound 12, 1-nitro-3-((E)-2-nitrobut-1-enyl) benzene] had a melting point of 84 to 86 °C. In addition, the “Parasite viability after treatment” value in data set [1] is “All the parasites were found to be dead”. Besides, the “Adverse toxicity” value in data set [2] is recorded as “Absence of adverse toxicity”. The “Cellular morphological alterations” value in data set [3] is on record as “altered to an ovoid shape with cell shrinkage, loss of flagella, cytoplasmic condensation”. The molecule further displayed an MIC in the data set with Aspergillus species of 0.5 to 1 µg/mL (≈ 2.25 to 4.5 µM). For the same molecule, the MIC with Candida species lay within 0.25 to 2 µg/mL (≈ 1.13 to 9 µM). This molecule displayed an MIC in data set [4] of 0.25 to 0.5 µg/mL (≈ 1.13 to 2.25 µM).
Consider `COc1ccc(/C=C(\C)[N+](=O)[O-])cc1` [Compound 14, 1-methoxy-4-((E)-2-nitroprop-1-enyl) benzene], for which, in data set [1], the “Parasite viability after treatment” value is given as “All the parasites were found to be dead”. In addition, the “Adverse toxicity” value in data set [2] is given as “Absence of adverse toxicity”. Also, the “Cellular morphological alterations” value in data set [3] was “altered to an ovoid shape with cell shrinkage, loss of flagella, cytoplasmic condensation”.
In the case of `CC/C(=C\c1ccc(O)cc1)[N+](=O)[O-]` [Compound 18, 4-((E)-2-nitrobut-1-enyl) phenol], the “Parasite viability after treatment” value in data set [1] is reported as “All the parasites were found to be dead”. Further, the “Adverse toxicity” value in data set [2] is on record as “Absence of adverse toxicity”. The “Cellular morphological alterations” value in data set [3] is reported as “altered to an ovoid shape with cell shrinkage, loss of flagella, cytoplasmic condensation”.

The values above are taken from paper PMC5007854, “β-Nitrostyrenes as Potential Anti-leishmanial Agents” (Frontiers in Microbiology, 2016).
